According to ChEMBL document CHEMBL3612014, “Discovery of Tyk2 inhibitors via the virtual site-directed fragment-based drug design” (Bioorg Med Chem Lett, 2015):

What was measured:
[1] = Systemic plasma clearance in Sprague-Dawley rat at 5 mg/kg, iv; type: ADME, organism-based
[2] = Oral bioavailability in Sprague-Dawley rat at 5 mg/kg; type: ADME, organism-based; conditions: in vivo
[3] = Terminal half life in Sprague-Dawley rat at 5 mg/kg, po; type: ADME, organism-based; conditions: in vivo, read-out: beta t1/2 (converted)
[4] = target: T1, Tyrosine-protein kinase JAK3 (Homo sapiens) (UniProt P52333); experiment: Inhibition of JAK3 (unknown origin) at 10 uM
T1 sequence (whole entry): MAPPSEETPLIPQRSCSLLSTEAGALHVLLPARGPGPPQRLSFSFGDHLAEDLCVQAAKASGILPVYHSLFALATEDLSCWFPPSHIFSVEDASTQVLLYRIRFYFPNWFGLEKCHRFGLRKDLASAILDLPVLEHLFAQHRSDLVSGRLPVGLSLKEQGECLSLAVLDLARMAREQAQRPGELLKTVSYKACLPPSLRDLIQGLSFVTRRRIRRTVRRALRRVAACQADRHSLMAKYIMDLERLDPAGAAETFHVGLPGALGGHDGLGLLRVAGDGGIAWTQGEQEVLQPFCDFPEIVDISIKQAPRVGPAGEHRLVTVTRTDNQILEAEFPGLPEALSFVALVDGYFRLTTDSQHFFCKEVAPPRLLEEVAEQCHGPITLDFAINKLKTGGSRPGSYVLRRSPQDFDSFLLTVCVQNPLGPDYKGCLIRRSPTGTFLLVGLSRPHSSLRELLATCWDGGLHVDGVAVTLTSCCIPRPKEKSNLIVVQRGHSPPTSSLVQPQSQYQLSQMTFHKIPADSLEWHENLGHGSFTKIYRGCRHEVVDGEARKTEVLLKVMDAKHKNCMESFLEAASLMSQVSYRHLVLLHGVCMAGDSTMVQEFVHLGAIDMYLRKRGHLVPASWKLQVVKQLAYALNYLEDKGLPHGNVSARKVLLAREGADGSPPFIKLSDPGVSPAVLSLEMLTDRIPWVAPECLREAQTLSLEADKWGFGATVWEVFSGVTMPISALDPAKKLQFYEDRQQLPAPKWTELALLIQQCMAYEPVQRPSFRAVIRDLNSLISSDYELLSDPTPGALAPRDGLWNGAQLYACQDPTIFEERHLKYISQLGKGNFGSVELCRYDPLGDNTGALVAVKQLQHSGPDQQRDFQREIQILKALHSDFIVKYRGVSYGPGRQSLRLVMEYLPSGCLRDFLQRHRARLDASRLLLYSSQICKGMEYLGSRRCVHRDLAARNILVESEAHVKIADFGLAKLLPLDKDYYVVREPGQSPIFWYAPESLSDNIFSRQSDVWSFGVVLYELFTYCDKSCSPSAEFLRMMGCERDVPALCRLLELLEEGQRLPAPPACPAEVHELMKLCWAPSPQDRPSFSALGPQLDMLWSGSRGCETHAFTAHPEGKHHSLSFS

[5] = Tmax in Sprague-Dawley rat at 5 mg/kg, iv; type: ADME, organism-based; conditions: in vivo
[6] = AUC (0 to t) in Sprague-Dawley rat at 5 mg/kg, po; type: ADME, organism-based; conditions: in vivo
[7] = target: T2, Aurora kinase A (Homo sapiens) (UniProt O14965); experiment: Inhibition of aurora-A (unknown origin) at 10 uM
T2 sequence (whole entry): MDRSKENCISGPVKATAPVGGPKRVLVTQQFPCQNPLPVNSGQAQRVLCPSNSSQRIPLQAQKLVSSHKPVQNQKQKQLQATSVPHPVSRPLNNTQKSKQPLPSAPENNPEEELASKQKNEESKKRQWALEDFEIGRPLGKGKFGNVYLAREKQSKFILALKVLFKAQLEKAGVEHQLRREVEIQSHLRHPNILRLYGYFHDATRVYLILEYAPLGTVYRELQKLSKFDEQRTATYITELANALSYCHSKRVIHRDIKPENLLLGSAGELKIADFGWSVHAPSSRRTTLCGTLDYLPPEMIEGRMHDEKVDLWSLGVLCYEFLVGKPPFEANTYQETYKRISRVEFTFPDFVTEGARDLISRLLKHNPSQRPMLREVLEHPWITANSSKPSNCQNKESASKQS

[8] = Cmax in Sprague-Dawley rat at 5 mg/kg, iv; type: ADME, organism-based; parameters: dose 5 mg/kg, route intravenous; conditions: in vivo
[9] = Terminal half life in Sprague-Dawley rat at 5 mg/kg, iv; type: ADME, organism-based; conditions: in vivo, read-out: beta t1/2 (converted)
[10] = AUC (0 to t) in Sprague-Dawley rat at 5 mg/kg, iv; type: ADME, organism-based; conditions: in vivo
[11] = Mean residence time in Sprague-Dawley rat at 5 mg/kg, po; type: ADME, organism-based; conditions: in vivo
[12] = target: Tyrosine-protein kinase JAK2 (Homo sapiens) (UniProt O60674); experiment: Inhibition of JAK2 (unknown origin) at 10 uM
[13] = Cmax in Sprague-Dawley rat at 5 mg/kg, po; type: ADME, organism-based; parameters: dose 5 mg/kg, route oral; conditions: in vivo
[14] = AUC (0 to infinity) in Sprague-Dawley rat at 5 mg/kg, iv; type: ADME, organism-based; parameters: dose 5 mg/kg, route intravenous, time infinity; conditions: in vivo
[15] = target: T3, Non-receptor tyrosine-protein kinase TYK2 (Homo sapiens, UniProt P29597); experiment: Inhibition of Tyk2 (unknown origin) at 10 uM
[16] = Tmax in Sprague-Dawley rat at 5 mg/kg, po; type: ADME, organism-based; conditions: in vivo
[17] = target: T3, Non-receptor tyrosine-protein kinase TYK2; experiment: Inhibition of Tyk2 (unknown origin)
[18] = Volume of distribution at steady state in Sprague-Dawley rat at 5 mg/kg, iv; type: ADME, organism-based; conditions: in vivo, read-out: Vdss
[19] = target: Serine/threonine-protein kinase PAK 4 (Homo sapiens) (UniProt O96013); experiment: Inhibition of PAK4 (unknown origin) at 10 uM
[20] = Mean residence time in Sprague-Dawley rat at 5 mg/kg, iv; type: ADME, organism-based; conditions: in vivo
[21] = AUC (0 to infinity) in Sprague-Dawley rat at 5 mg/kg, po; type: ADME, organism-based; parameters: dose 5 mg/kg, time infinity, route oral; conditions: in vivo
[22] = target: T3, Non-receptor tyrosine-protein kinase TYK2; experiment: Inhibition of Tyk2 (unknown origin) at 3 uM
[23] = target: T3, Non-receptor tyrosine-protein kinase TYK2; experiment: Inhibition of Tyk2 (unknown origin) at 30 uM
[24] = target: T3, Non-receptor tyrosine-protein kinase TYK2; experiment: Inhibition of Tyk2 (unknown origin) at 100 uM

T3 sequence (P29597 whole entry): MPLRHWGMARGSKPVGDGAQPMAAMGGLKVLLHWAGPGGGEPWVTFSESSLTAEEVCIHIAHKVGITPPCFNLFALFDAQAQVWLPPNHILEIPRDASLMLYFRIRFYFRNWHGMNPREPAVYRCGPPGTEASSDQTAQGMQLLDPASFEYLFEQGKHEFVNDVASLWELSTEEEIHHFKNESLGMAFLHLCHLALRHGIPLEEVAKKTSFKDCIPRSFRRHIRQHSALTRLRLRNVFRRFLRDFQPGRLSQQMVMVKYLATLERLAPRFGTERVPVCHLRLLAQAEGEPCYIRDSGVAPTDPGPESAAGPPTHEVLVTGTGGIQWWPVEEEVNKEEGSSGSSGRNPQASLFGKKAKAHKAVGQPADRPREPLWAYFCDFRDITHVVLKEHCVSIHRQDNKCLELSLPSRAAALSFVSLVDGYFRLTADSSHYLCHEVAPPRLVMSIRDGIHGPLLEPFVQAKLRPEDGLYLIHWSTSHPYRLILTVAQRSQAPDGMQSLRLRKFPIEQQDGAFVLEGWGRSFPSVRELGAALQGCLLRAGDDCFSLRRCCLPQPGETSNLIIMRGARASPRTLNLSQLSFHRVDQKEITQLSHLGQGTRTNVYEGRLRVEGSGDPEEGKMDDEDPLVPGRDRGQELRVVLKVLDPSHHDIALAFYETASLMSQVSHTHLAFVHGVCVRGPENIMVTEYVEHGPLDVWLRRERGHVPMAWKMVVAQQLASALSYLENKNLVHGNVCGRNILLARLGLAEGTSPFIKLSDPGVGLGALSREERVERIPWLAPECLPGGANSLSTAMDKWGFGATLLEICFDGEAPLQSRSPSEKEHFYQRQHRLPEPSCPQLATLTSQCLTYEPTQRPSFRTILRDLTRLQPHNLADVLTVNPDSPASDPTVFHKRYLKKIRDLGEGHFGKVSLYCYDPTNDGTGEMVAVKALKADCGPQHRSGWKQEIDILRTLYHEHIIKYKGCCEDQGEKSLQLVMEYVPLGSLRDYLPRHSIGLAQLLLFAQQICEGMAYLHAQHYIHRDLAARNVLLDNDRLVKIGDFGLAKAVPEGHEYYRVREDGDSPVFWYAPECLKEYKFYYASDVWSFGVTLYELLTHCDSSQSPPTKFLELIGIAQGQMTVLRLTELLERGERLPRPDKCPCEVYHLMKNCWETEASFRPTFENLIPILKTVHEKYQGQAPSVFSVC
Chain of Tyrosine-protein kinase JAK2 (Homo sapiens) (O60674 whole entry): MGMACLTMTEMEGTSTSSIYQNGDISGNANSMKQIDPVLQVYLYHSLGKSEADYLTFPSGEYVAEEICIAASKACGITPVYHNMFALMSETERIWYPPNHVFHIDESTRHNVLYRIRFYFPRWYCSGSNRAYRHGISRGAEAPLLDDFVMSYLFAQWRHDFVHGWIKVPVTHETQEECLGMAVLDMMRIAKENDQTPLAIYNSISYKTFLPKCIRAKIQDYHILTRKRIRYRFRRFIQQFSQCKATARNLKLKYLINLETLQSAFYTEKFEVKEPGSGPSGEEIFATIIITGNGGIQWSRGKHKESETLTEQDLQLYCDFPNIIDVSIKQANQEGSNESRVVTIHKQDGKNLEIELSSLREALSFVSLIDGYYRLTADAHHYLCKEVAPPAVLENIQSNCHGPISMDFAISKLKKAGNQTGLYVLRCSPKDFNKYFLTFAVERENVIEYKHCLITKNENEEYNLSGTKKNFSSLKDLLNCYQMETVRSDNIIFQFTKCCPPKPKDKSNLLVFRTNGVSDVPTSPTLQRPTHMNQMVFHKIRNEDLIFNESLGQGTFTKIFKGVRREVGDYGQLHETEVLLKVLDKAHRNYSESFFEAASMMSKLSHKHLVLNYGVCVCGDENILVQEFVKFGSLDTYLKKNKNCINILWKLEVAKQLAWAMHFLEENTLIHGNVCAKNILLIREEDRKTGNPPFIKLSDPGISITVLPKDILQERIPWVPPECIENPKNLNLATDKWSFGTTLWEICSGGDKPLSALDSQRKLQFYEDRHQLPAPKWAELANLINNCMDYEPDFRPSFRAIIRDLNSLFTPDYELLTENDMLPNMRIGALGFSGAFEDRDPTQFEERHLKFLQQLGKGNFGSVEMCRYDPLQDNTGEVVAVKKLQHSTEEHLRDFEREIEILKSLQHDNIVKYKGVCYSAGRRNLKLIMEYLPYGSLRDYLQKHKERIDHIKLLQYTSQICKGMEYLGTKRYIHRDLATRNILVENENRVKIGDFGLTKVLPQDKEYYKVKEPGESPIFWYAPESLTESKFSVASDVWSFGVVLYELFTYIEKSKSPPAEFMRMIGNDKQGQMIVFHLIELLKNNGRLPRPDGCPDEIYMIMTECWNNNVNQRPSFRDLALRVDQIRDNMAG
Chain of Serine/threonine-protein kinase PAK 4 (Homo sapiens) (O96013 whole entry, looked up): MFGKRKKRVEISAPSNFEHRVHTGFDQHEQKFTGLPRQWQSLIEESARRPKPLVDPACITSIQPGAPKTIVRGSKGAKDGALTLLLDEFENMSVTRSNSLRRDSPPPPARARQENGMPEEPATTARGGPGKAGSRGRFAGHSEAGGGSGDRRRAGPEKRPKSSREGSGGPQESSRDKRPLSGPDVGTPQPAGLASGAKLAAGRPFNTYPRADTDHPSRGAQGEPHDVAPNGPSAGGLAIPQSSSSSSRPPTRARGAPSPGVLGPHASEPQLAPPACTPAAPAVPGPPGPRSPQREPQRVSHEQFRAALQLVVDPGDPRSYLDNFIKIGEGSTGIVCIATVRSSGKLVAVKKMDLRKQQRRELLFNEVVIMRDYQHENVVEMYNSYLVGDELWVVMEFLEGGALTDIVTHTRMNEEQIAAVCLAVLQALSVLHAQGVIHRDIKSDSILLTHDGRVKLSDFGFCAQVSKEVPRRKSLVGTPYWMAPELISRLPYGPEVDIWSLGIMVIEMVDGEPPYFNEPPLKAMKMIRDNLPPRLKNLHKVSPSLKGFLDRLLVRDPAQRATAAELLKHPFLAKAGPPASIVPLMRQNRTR

CC(C)c1nn(C)cc1-c1nc2c(N3CCN(Cc4cccnc4)CC3)c(Br)cnc2[nH]1
clearance [1]: 59 mL/min/kg | bioavailability [2]: 6.07% | half-life [3]: 105 min | inhibition [4]: > 90% | Tmax [5]: 4.8 min | AUC(0-t) [6]: 80 ng·h/mL | inhibition [7]: > 90% | Cmax [8]: 1340 ng/mL | half-life [9]: 49.8 min | AUC(0-t) [10]: 1420 ng·h/mL | MRT [11]: 102 min | inhibition [12]: > 90% | Cmax [13]: 70 ng/mL | AUC(0-inf) [14]: 1430 ng·h/mL | inhibition [15]: 99% | Tmax [16]: 19.8 min | IC50 [17]: 10 nM | Vd [18]: 2.76 L/kg | inhibition [19]: < 50% | MRT [20]: 47.4 min | AUC(0-inf) [21]: 90 ng·h/mL

CC(C)c1nn(-c2ccccc2)cc1-c1nc2cc(Br)cnc2[nH]1
inhibition [15]: 38%

CC(C)c1nn(C)cc1-c1nc2cc(Br)cnc2[nH]1
inhibition [22]: 60% | inhibition [23]: 92% | inhibition [24]: 97% | inhibition [15]: 83%

CC(C)c1n[nH]cc1-c1nc2cc(Br)cnc2[nH]1
inhibition [15]: < 30%
